# Measured values reported in US11459315B2, “Modulators of methyl modifying enzymes, compositions and uses thereof” (Constellation Pharmaceuticals, Inc., priority 2017, dated 2022).
# Read-outs that look alike come from different tables or passages of the source.
# Legend:
# [1] = biological target: PRC2 containing wt EZH2 (Homo sapiens (Human), UniProt Q15910); test: EZH2 biochemical assay (IC50), 3H-SAM incorporation into biotinylated H3 peptide; conditions: 30 pM PRC2 containing wt EZH2, 3-5 h pre-incubation
# Sequence of PRC2 containing wt EZH2 (Q15910 whole entry): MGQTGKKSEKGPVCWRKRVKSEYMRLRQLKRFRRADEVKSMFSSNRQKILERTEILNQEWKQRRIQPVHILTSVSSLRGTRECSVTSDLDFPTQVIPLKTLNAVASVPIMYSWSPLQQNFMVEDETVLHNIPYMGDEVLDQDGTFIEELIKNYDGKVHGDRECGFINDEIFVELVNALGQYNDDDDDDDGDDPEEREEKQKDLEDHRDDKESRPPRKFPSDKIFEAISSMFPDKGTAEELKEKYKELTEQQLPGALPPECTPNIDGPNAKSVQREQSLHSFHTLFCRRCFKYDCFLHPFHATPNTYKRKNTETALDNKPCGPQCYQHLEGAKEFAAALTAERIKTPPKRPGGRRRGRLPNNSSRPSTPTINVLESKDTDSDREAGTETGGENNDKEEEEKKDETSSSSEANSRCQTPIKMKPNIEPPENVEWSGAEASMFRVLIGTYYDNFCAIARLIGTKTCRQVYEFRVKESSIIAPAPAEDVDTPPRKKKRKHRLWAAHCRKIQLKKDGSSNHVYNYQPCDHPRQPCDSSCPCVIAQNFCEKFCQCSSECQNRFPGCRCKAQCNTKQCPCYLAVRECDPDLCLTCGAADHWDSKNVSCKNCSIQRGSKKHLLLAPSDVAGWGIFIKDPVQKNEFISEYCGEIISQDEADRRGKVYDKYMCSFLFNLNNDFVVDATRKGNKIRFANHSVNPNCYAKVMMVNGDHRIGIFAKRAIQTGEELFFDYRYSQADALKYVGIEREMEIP
# Sequence of PRC2 containing wt EZH2 (O75530 whole entry partner): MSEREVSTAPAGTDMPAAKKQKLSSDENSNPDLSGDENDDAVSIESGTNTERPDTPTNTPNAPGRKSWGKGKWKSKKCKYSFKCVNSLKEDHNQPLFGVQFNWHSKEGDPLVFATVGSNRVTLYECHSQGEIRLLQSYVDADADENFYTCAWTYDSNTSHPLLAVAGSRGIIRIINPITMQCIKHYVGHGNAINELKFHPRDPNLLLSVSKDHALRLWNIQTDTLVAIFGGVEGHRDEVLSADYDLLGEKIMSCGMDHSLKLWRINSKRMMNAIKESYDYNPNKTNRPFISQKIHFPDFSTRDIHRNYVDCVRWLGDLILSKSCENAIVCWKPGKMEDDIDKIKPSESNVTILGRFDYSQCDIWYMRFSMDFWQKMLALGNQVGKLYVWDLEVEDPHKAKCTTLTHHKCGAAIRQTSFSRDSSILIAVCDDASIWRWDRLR
# Sequence of PRC2 containing wt EZH2 (Q15022 whole entry partner): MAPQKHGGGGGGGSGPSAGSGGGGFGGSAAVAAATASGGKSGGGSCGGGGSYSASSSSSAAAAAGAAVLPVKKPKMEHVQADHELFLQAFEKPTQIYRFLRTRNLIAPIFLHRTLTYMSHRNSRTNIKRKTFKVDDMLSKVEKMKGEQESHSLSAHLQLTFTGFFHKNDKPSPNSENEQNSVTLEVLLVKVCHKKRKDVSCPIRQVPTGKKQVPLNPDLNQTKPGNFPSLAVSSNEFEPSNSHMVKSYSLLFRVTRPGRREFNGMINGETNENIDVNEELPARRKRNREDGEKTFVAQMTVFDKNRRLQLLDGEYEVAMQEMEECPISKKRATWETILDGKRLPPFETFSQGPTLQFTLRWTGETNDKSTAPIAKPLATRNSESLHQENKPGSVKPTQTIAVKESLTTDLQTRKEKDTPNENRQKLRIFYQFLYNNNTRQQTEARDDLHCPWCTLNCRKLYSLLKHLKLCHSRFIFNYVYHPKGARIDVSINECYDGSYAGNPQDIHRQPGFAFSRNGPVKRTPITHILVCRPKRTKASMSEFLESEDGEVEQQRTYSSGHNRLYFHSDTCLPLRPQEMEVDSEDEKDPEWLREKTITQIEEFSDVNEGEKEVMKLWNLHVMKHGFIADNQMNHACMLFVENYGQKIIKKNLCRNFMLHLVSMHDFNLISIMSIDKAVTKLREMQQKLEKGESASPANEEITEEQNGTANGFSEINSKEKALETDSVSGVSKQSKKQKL
# Sequence of PRC2 containing wt EZH2 (Q09028 whole entry partner): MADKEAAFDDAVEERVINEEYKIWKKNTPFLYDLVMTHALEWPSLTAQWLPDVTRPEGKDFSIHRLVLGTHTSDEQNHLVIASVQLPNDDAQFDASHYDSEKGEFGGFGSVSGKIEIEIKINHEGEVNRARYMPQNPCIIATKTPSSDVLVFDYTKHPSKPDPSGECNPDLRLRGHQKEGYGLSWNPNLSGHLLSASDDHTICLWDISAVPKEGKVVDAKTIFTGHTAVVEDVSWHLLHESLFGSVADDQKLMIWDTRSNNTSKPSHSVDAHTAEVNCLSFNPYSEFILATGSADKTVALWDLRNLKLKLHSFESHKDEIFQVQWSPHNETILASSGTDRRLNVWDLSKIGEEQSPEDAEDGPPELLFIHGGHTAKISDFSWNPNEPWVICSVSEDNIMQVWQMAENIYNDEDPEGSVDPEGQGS
# Sequence of PRC2 containing wt EZH2 (Q6ZN18 whole entry partner): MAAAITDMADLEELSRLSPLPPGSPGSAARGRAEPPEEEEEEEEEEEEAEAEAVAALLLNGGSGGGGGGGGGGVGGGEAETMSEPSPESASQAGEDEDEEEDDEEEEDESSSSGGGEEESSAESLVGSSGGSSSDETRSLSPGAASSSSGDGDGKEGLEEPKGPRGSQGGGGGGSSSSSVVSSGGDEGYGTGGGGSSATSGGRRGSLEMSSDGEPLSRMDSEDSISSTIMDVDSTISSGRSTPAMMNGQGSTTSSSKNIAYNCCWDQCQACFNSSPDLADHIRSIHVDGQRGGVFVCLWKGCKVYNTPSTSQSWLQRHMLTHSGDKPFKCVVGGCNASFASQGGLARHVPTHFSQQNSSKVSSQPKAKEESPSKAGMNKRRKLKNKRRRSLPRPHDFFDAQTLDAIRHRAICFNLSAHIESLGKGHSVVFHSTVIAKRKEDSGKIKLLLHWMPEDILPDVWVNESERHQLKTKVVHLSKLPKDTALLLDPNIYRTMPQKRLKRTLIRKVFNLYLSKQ
# Summary of the method: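 The PRC2 pentamer with wt EZH2 (30 pM) was pre-incubated for 3-5 h with 450 nM SAM plus 450 nM ³H-SAM, 2 µM H3K27me3 activating peptide and compound (0.8% DMSO) in Tris at pH 8.5. Biotinylated H3K27me1 peptide was added and the reaction ran 18-22 h at RT. Incorporated ³H was captured on streptavidin plates, and IC50 was taken from a four-parameter fit.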
# [2] = tested on: H3K27me3 mark in HeLa cells (EZH2); test: H3K27me3 Alpha Hela Assay (AlphaLISA); assay type: cell-based; conditions: HeLa cells, 72 hrs, read-out: EZH2 Cell H3K27me3 Alpha HeLa (EC50 K27me3)
# Summary of the method: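 HeLa cells (1,000/well) treated with ten 3-fold compound doses for 72 h at 37 °C; lysates extracted and H3K27me3 detected by AlphaLISA with anti-K27me3 acceptor beads, biotinylated anti-H3 (3 nM) and streptavidin donor beads. EC50 from DMSO-normalized dose-response curves; duplicate plate assessed viability.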
SMILES,IC50 ([1]; EZH2 (IC50)) [µM],EC50 [2] [µM],IC50 ([1]; read-out: EZH2 (IC50)) [µM],"EC50 ([2]; Homo sapiens, HeLa, 72 h) [µM]"
"CSc1cc(C)[nH]c(=O)c1CNC(=O)c1c(C)n([C@H](C)C2CCC(N3CC34COC4)CC2)c2ncccc12 (single isomer, unassigned) [139 (isomer 2)]",0.0005 to 0.005,0.01 to 0.1,,
"CCCC(=O)OC1CCC([C@@H](C)n2c(C)c(C(=O)NCc3c(SC)cc(C)[nH]c3=O)c3ccccc32)CC1 (single isomer, unassigned) [143 (isomer 1)]",,,< 0.0005,< 0.01
"CCCC(=O)OC1CCC([C@@H](C)n2c(C)c(C(=O)NCc3c(SC)cc(C)[nH]c3=O)c3ccccc32)CC1 (single isomer, unassigned) [143 (isomer 2)]",,< 0.01,< 0.0005,
"CSc1cc(C)[nH]c(=O)c1CNC(=O)c1c(C)n([C@H](C)C2CCC(OC(=O)C(C)C)CC2)c2ccccc12 (single isomer, unassigned) [144 (isomer 1)]",,,< 0.0005,< 0.01
"CSc1cc(C)[nH]c(=O)c1CNC(=O)c1c(C)n([C@H](C)C2CCC(OC(=O)C(C)C)CC2)c2ccccc12 (single isomer, unassigned) [144 (isomer 2)]",,< 0.01,< 0.0005,
"CSc1cc(C)[nH]c(=O)c1CNC(=O)c1c(C)n([C@H](C)C2CCC(OC3CN(C)C3)CC2)c2ncccc12 (single isomer, unassigned) [145 (isomer 1)]",0.0005 to 0.005,,,> 0.1
"CSc1cc(C)[nH]c(=O)c1CNC(=O)c1c(C)n([C@H](C)C2CCC(OC3CN(C)C3)CC2)c2ncccc12 (single isomer, unassigned) [145 (isomer 2)]",< 0.0005,> 0.1,,
"CSc1cc(C)[nH]c(=O)c1CNC(=O)c1c(C)n([C@H](C)C2CCC(Oc3cnn(C)c3)CC2)c2ncccc12 (single isomer, unassigned) [147 (isomer 1)]",,,< 0.0005,< 0.01
"CSc1cc(C)[nH]c(=O)c1CNC(=O)c1c(C)n([C@H](C)C2CCC(Oc3cnn(C)c3)CC2)c2ncccc12 (single isomer, unassigned) [147 (isomer 2)]",,< 0.01,< 0.0005,
"CSc1cc(C)[nH]c(=O)c1CNC(=O)c1c(C)n([C@H](C)C2CCC(N3CC(N(C)C)C3)CC2)c2ccccc12 (single isomer, unassigned) [148 (isomer 1)]",,,< 0.0005,0.01 to 0.1
"CSc1cc(C)[nH]c(=O)c1CNC(=O)c1c(C)n([C@H](C)C2CCC(N3CC(N(C)C)C3)CC2)c2ccccc12 (single isomer, unassigned) [148 (isomer 2)]",,0.01 to 0.1,< 0.0005,
"CSc1cc(C)[nH]c(=O)c1CNC(=O)c1c(C)n([C@H](C)C2CCC(NC3(C)CCOC3)CC2)c2ccccc12 (single isomer, unassigned) [149 (isomer 1)]",,,< 0.0005,0.01 to 0.1
"CSc1cc(C)[nH]c(=O)c1CNC(=O)c1c(C)n([C@H](C)C2CCC(NC3(C)CCOC3)CC2)c2ccccc12 (single isomer, unassigned) [149 (isomer 2)]",,0.01 to 0.1,< 0.0005,
"CSc1cc(C)[nH]c(=O)c1CNC(=O)c1c(C)n([C@H](C)C2CCC(NC3(CF)COC3)CC2)c2ccccc12 (single isomer, unassigned) [154 (isomer 1)]",,,< 0.0005,0.01 to 0.1
"CSc1cc(C)[nH]c(=O)c1CNC(=O)c1c(C)n([C@H](C)C2CCC(NC3(CF)COC3)CC2)c2ccccc12 (single isomer, unassigned) [154 (isomer 2)]",,< 0.01,< 0.0005,
"CSc1cc(C)[nH]c(=O)c1CNC(=O)c1c(C)n([C@H](C)C2CCC(NC3(CF)COC3)CC2)c2ncccc12 (single isomer, unassigned) [155 (isomer 1)]",,,< 0.0005,< 0.01
"CSc1cc(C)[nH]c(=O)c1CNC(=O)c1c(C)n([C@H](C)C2CCC(NC3(CF)COC3)CC2)c2ncccc12 (single isomer, unassigned) [155 (isomer 2)]",,0.01 to 0.1,0.0005 to 0.005,

SMILES,IC50 ([1]; EZH2 (IC50)) [µM],EC50 [2] [µM],IC50 ([1]; read-out: EZH2 (IC50)) [µM],"EC50 ([2]; Homo sapiens, HeLa, 72 h) [µM]"
"CSc1cc(C)[nH]c(=O)c1CNC(=O)c1c(C)n([C@H](C)C2CCC(NC3(CF)COC3)CC2)c2ncncc12 (single isomer, unassigned) [156 (isomer 1)]",,,< 0.0005,< 0.01
"CSc1cc(C)[nH]c(=O)c1CNC(=O)c1c(C)n([C@H](C)C2CCC(NC3(CF)COC3)CC2)c2ncncc12 (single isomer, unassigned) [156 (isomer 2)]",,0.01 to 0.1,< 0.0005,
"CSc1cc(C)[nH]c(=O)c1CNC(=O)c1c(C)n([C@H](C)C2CCC(NC3(CO)COC3)CC2)c2cc(F)ccc12 (single isomer, unassigned) [159 (isomer 1)]",,,< 0.0005,0.01 to 0.1
"CSc1cc(C)[nH]c(=O)c1CNC(=O)c1c(C)n([C@H](C)C2CCC(NC3(CO)COC3)CC2)c2cc(F)ccc12 (single isomer, unassigned) [159 (isomer 2)]",,0.01 to 0.1,< 0.0005,
"CSc1cc(C)[nH]c(=O)c1CNC(=O)c1c(C)n([C@H](C)C2CCC(N3CC(S(C)(=O)=O)C3)CC2)c2ccccc12 (single isomer, unassigned) [162 (isomer 1)]",,0.01 to 0.1,< 0.0005,
"CSc1cc(C)[nH]c(=O)c1CNC(=O)c1c(C)n([C@H](C)C2CCC(N3CC(S(C)(=O)=O)C3)CC2)c2ccccc12 (single isomer, unassigned) [162 (isomer 2)]",,> 0.1,0.0005 to 0.005,
"CSc1cc(C)[nH]c(=O)c1CNC(=O)c1c(C)n([C@H](C)C2CCC(NC3(C(F)(F)F)COC3)CC2)c2ncccc12 (single isomer, unassigned) [163 (isomer 1)]",,,< 0.0005,< 0.01
"CSc1cc(C)[nH]c(=O)c1CNC(=O)c1c(C)n([C@H](C)C2CCC(NC3(C(F)(F)F)COC3)CC2)c2ncccc12 (single isomer, unassigned) [163 (isomer 2)]",,0.01 to 0.1,0.0005 to 0.005,
"CSc1cc(C)[nH]c(=O)c1CNC(=O)c1c(C)n([C@H](C)C2CCC(NC3(C(F)(F)F)COC3)CC2)c2ncncc12 (single isomer, unassigned) [164 (isomer 1)]",,,< 0.0005,< 0.01
"CSc1cc(C)[nH]c(=O)c1CNC(=O)c1c(C)n([C@H](C)C2CCC(NC3(C(F)(F)F)COC3)CC2)c2ncncc12 (single isomer, unassigned) [164 (isomer 2)]",,0.01 to 0.1,0.0005 to 0.005,
"CSc1cc(C)[nH]c(=O)c1CNC(=O)c1c(C)n([C@H](C)C2CCC(N3CC(OC4CC4)C3)CC2)c2ncccc12 (single isomer, unassigned) [Example 30]",,,< 0.0005,< 0.01
"CSc1cc(C)[nH]c(=O)c1CNC(=O)c1c(C)n([C@H](C)C2CCC(NC3(C(F)(F)F)COC3)CC2)c2ccccc12 (single isomer, unassigned) [Example 130]",,,< 0.0005,< 0.01
"CSc1cc(C)[nH]c(=O)c1CNC(=O)c1c(C)n([C@H](C)[C@H]2OC[C@@H](N3CCC34COC4)CO2)c2ccccc12 (single isomer, unassigned; isomer 1) [150 (isomer 1)]",,> 0.1,0.0005 to 0.005,
"CSc1cc(C)[nH]c(=O)c1CNC(=O)c1c(C)n([C@@H](C)[C@H]2OC[C@@H](N3CCC34COC4)CO2)c2ccccc12 (single isomer, unassigned; isomer 1) [151 (isomer 1)]",,> 0.1,0.0005 to 0.005,
"CSc1cc(C)[nH]c(=O)c1CNC(=O)c1c(C)n([C@H](C)[C@H]2OC[C@H](N3CCC34COC4)CO2)c2ccccc12 (single isomer, unassigned; isomer 2) [150 (isomer 2)]",,< 0.01,< 0.0005,
"CSc1cc(C)[nH]c(=O)c1CNC(=O)c1c(C)n([C@@H](C)[C@H]2OC[C@H](N3CCC34COC4)CO2)c2ccccc12 (single isomer, unassigned; isomer 2) [151 (isomer 2)]",,> 0.1,> 0.005,
"CSc1cc(C)[nH]c(=O)c1CNC(=O)c1c(C)n([C@H](C)C23CC(NC4COC4)(C2)C3)c2ccccc12 [Example 8, (R)-2-methyl-N-((6-methyl-4-(methylthio)-2-oxo-1,2-dihydropyridin-3-yl)methyl)-1-(1-(3-(oxetan-3-ylamino)bicyclo[1.1.1]pentan-1-yl)ethyl)-1H-indole-3-carboxamide]",,,< 0.0005,< 0.01
